Measured values: patent publication US20250145632A1, “Pyrimidine Heterocyclic Compound, Preparation Method Thereof and use Thereof in Medicine” (INSILICO MEDICINE IP LIMITED, priority 2021, published 2025)
pIC50: −log10 of the molar value.

What was measured:
[1] = In-vivo pharmacokinetic experiment in male beagles; parameters: species or system dog; conditions: beagle
Experimental: Experimental method and conditions: male beagles with weight of 8-11 kg were purchased from Jiangsu Marshall Biotechnology Co., Ltd. The to-be-tested compound was administered to 3 dogs at 0.2 mg/kg or 1.0 mg/kg (solvent: 2% DMSO+10% Kolliphor HS 15+88% (6.818% of hydroxypropyl-beta-cyclodextrin aqueous solution), 0.2 mg/mL or 1.0 mg/mL) by intravenous injection, and administered to 3 dogs at 2 mg/kg (solvent: 5% DMSO+95% (10% hydroxypropyl-beta-cyclodextrin salt aqueous solution, 0.4 mg/mL) by oral intragastric administration. Head vein blood sampling was carried out 5 min, 15 min, 30 min, 1 h, 2 h, 4 h, 8 h and 24 h after the administration, and 500 μL of each sample was collected. After collection, the samples were placed on ice, and plasma was centrifugally separated within 15 min for testing. The concentration of the medicine in the plasma was detected by liquid chromatography-tandem mass spectrometry (LC/MS/MS), and pharmacokinetic parameters were calculated with Phoenix WinNonlin software when the concentration was measured.

[2] = system: OVCAR-3 human ovarian adenocarcinoma cells; experiment: OVCAR-3 tumor cell proliferation inhibition (CellTiter-Glo); type: cell-based; conditions: 3 d culture
Experimental: (§1) OVCAR-3 was purchased from ATCC; article No.: HTB-161; RPMI1640 was purchased from Gibco; article No.: 11875-093; Pancreatin (including EDTA) was purchased from Gibco; article No.: 25200-072; FBS was purchased from Gibco; Article No.: 10091-148; CellTiter-Glo was purchased from Promega; article No.: G7573; Bovine insulin was purchased from absin; article No.: abs9169; DMSO was purchased from VWR AMRESCO; article No.: 0231-500ML; Staurosporine was purchased from Selleck; article No.: S1421; a cell counter was purchased from CHEMOMETEC; model: NC-200; and a microplate reader was purchased from PerkinElmer; Model: Envison.
(§2) OVCAR-3 was human ovarian adenocarcinoma cells cultured in an RPMI-1640 culture medium containing 20% FBS and 0.01 mg/mL of Bovine insulin. Cells in logarithmic phase were taken, and the cells were subjected to digesting, collecting and counting with pancreatin-EDTA, 2000 OVCAR-3 cells/well were inoculated in a 384-well cell plate, and were cultured in 5% CO2 overnight. A 1000× compound stock solution with 3.16 times of gradient concentration was prepared with DMSO, and was diluted 100 times to 10× compound stock solution with a culture medium, and 10× compound stock solution was added into each cell culture well on the next day after cell inoculation, wherein the final concentration was 1×, and the DMSO content was 0.1%. The cell group was treated with DMSO as an experimental control (control), and the cell group was treated with 5 μM of Staurosporine as a blank control (blank).

[3] = system: HCC70 human breast ductal cancer cells; experiment: HCC70 tumor cell proliferation inhibition (CellTiter-Glo); type: cell-based; conditions: 3 d culture
Experimental: as §1, with “HCC70” for “OVCAR-3”, “CRL-2315;” for “HTB-161;”, “article” for “Article”, “10099-141C;” for “10091-148;”, “G7573;” for “G7573; Bovine insulin was purchased from absin; article No.: abs9169;”
as §2, with “HCC70” for “OVCAR-3”, “breast ductal cancer” for “ovarian adenocarcinoma”, “10% FBS.” for “20% FBS and 0.01 mg/mL of Bovine insulin.”

[4] = male, dog, plasma, intravenous injection 1.0 mg/kg
[5] = male, dog, plasma, oral administration 2 mg/kg

pIC50 [2] | Structure (SMILES) | pIC50 [3] | other results
 | CC1(C)CC[C@H](Nc2ncc(C(F)(F)F)c(-c3c[nH]c4c(P(C)(C)=O)c(C#N)ccc34)n2)CN1 [Compound 101, reference compound] |  | CL ([1]; intravenous injection 1.0 mg/kg): 14.5 mL/min/kg; Cmax ([1]; oral administration 2 mg/kg): 123 ng/mL; F(%) ([1]; oral administration 2 mg/kg): 65.8%; AUC(0-inf) [1, 4]: 1230 ng·h/mL; half-life [1, 4]: 6.88 h; Vd ([1]; male, dog, plasma, intravenous injection 1.0 mg/kg, read-out: Vss): 7.57 L/kg; AUC(0-inf) [1, 5]: 1590 ng·h/mL; half-life [1, 5]: 6.61 h
7.67 | CN1CC(F)(F)CCNC2CC[C@@H](C2)Nc2ncc(C(F)(F)F)c(n2)-c2c[nH]c3c(P(C)(C)=O)c(ccc23)C1=O [Compound Z66, (41 S,4^3S)-1^7-(dimethylphosphoryl)-8,8-difluoro-10-methyl-2^5-(trifluoromethyl)-1^1H-3,5,10-triaza-1(3,6)-indola-2(4,2)-pyrimidina-4(1,3)-cyclopentanacycloundecaphan-11-one] | 7.98 | 
 | COc1cc2c(cn1)-c1ccc3c(c[nH]c3c1)-c1nc(ncc1C(F)(F)F)N[C@H]1CC[C@@H](C1)NCCCC2 [Compound Z73] |  | pIC50 ([2]; Homo sapiens, OVCAR-3, 72 h): 5.98; pIC50 ([3]; Homo sapiens, HCC70, 72 h): 6.63
 | O=c1cc2c(c[nH]1)-c1ccc3c(c[nH]c3c1)-c1nc(ncc1C(F)(F)F)N[C@H]1CC[C@@H](C1)NCCCC2 [Compound Z74] |  | pIC50 ([2]; Homo sapiens, OVCAR-3, 72 h): 5.46; pIC50 ([3]; Homo sapiens, HCC70, 72 h): 5.90
7.93 | CN1CC(F)CCNC2CCC(C2)Nc2ncc(C(F)(F)F)c(n2)-c2c[nH]c3c(P(C)(C)=O)c(ccc23)C1=O [Compound Z77, (4^1S,4^3S,8S)-17-(dimethylphosphoryl)-8-fluoro-10-methyl-2^5-(trifluoromethyl)-1′H-3,5,10-triaza-1(3,6)-indola-2(4,2)-pyrimidina-4(1,3)-cyclopentanacycloundecaphan-11-one] | 8.01 | 
7.20 | CN1C[C@H](F)CCN(C)[C@H]2CC[C@@H](C2)Nc2ncc(C(F)(F)F)c(n2)-c2c[nH]c3c(P(C)(C)=O)c(ccc23)C1=O [Compound Z78, (4^1S,4^3S,8R)-1^7-(dimethylphosphoryl)-8-fluoro-5,10-dimethyl-2^5-(trifluoromethyl)-1^1H-3,5,10-triaza-1(3,6)-indola-2(4,2)-pyrimidina-4(1,3)-cyclopentanacycloundecaphan-11-one] | 7.36 | 
6.70 | CN1CCCCN(C)[C@H]2CC[C@@H](C2)Nc2ncc(C(F)(F)F)c(n2)-c2c[nH]c3c(C#N)c(ccc23)C1=O [Compound Z84, (4^1S,4^3S)-5,10-dimethyl-11-oxo-2^5-(trifluoromethyl)-1^1H-3,5,10-triaza-1(3,6)-indola-2(4,2)-pyrimidina-4(1,3)-cyclopentanacycloundecaphane-1^7-carbonitrile] | 6.58 | 
5.74 | CN1CCC(F)(F)CN(C)C2CC[C@@H](C2)Nc2ncc(C(F)(F)F)c(n2)-c2c[nH]c3c(P(C)(C)=O)c(ccc23)C1=O [Compound Z85, (4^1S,4^3S)-1^7-(dimethylphosphoryl)-7,7-difluoro-5,10-dimethyl-2^5-(trifluoromethyl)-1^1H-3,5,10-triaza-1(3,6)-indola-2(4,2)-pyrimidina-4(1,3)-cyclopentanacycloundecaphan-11-one] | 6.29 | 
< 5.00 | CN1CCC(F)(F)CN(C)C2CC[C@@H](C2)Nc2ncc(C(F)(F)F)c(n2)-c2c[nH]c3c(P(C)(C)=O)c(ccc23)C1=O [Compound Z86, (4^1S,4^3S)-1^7-(dimethylphosphoryl)-7,7-difluoro-5,10-dimethyl-2^5-(trifluoromethyl)-1^1H-3,5,10-triaza-1(3,6)-indola-2(4,2)-pyrimidina-4(1,3)-cyclopentanacycloundecaphan-11-one] | < 5.00 | 
< 5.00 | CN1CCC(F)CN(C)C2CC[C@@H](C2)Nc2ncc(C(F)(F)F)c(n2)-c2c[nH]c3c(P(C)(C)=O)c(ccc23)C1=O (stereo partly drawn) [Compound Z89, (41S)-1^7-(dimethylphosphoryl)-7-fluoro-5,10-dimethyl-2^5-(trifluoromethyl)-1^1H-3,5,10-triaza-1(3,6)-indola-2(4,2)-pyrimidina-4(1,3)-cyclopentanacycloundecaphan-11-one] | < 5.00 | 
< 5.00 | CN1CCC(F)CN(C)C2CC[C@@H](C2)Nc2ncc(C(F)(F)F)c(n2)-c2c[nH]c3c(P(C)(C)=O)c(ccc23)C1=O (stereo partly shown) [Compound Z90, (4^1S)-1^7-(dimethylphosphoryl)-7-fluoro-5,10-dimethyl-2^5-(trifluoromethyl)-1^1H-3,5,10-triaza-1(3,6)-indola-2(4,2)-pyrimidina-4(1,3)-cyclopentanacycloundecaphan-11-one] | < 5.00 | 
6.09 | CN1CCOCCN(C)[C@H]2CC[C@@H](C2)Nc2ncc(C(F)(F)F)c(n2)-c2ccc3c(c[nH]c3n2)C1=O [Compound Z91, (4^1S,4^3S)-5,11-dimethyl-2^5-(trifluoromethyl)-1^1H-8-oxa-3,5,11-triaza-1(3,6)-pyrrolo[2,3-b]pyridina-2(4,2)-pyrimidina-4(1,3)-cyclopentanacyclododecaphan-12-one] | 6.36 | 
6.46 | CN1CCCCN(C)[C@H]2CC[C@@H](C2)Nc2ncc(C(F)(F)F)c(n2)-c2c[nH]c3nc(ccc23)C1=O [Compound Z92, (4^1S,4^3S)-5,10-dimethyl-2^5-(trifluoromethyl)-1^1H-3,5,10-triaza-1(3,6)-pyrrolo[2,3-b]pyridina-2(4,2)-pyrimidina-4(1,3)-cyclopentanacycloundecaphan-11-one] | 6.97 | 

Structure (SMILES) | pIC50 [2] | pIC50 [3] | other results
CN1CC(F)(F)CCN(C)C2CCC(C2)Nc2ncc(C(F)(F)F)c(n2)-c2ccc3c(c[nH]c3n2)C1=O (stereo not shown) [Compound Z93, (4^1S,4^3S)-8,8-difluoro-5,10-dimethyl-2^5-(trifluoromethyl)-1^1H-3,5,10-triaza-1(3,6)-pyrrolo[2,3-b]pyridine-2(4,2)-pyrimidina-4(1,3)-cyclopentanacycloundecaphan-11-one] | < 5.00 | 5.28 | 
